Legend:
A2058 melanoma cells [1] = experiment: Morphometry analysis by HoloMonitor M4 holographic microscopy; assay type: cell-based, human; conditions: fold change during treatment normalized to control cells, average ± SD, 50 cells/group, 180 consecutive frames
Method: Holographic microscopic measurements were also performed to visualize the morphological changes induced by the conjugates and Dau. This novel technique provided several morphological parameters (e.g., surface area, optical thickness, eccentricity etc.) that allowed understanding of the results of impedance-based adhesion measurement. Holographic images were taken before and after the 3-hour treatment of A2058 cells with the compounds. The change in the morphological parameters shown in Table S1 in Supporting Information File 2 was calculated from a fold change during 3 h long treatment and this value was normalized to that of the control cells. The adhesion inducer effects of Dau and GnRH-III(Dau=Aoa) detected by the impedimetric assay were reflected in the morphometry analysis.
The experimental set up we used for the morphometry analysis can be also found in [6]. The HolomonitorTM M4 microscope (Phase Holographic Imaging AB, Lund, Sweden) was used for imaging and tracking the morphological changes of A2058 cells induced by the conjugates and Dau. This technique is dedicated to analyzing the morphology and movement of adherent cells by recording 3D, holographic phase contrast images and tracking them over a given time period. The principle behind this method is the detection of the phase shift of the probing laser light transmitting or reflecting through a cell sample and comparison to the reference light […]
A2058 cells were seeded (2.5 × 10^5 cells) in a petri dish (diameter: 35 mm) and allowed to adhere for 24 h. After automatic calibration of the background and microscope objective (20×), one field of each sample was focused on by the digital autofocus feature. The cells were then treated with the test compounds at the final concentrations of 10−7–10−5 mol/L, or with an equivalent volume of culture medium, and captured every 30 sec for 2 h.
For the evaluation, ca. 50 cells per time-lapse sequence were identified and selected by the minimum error histogram-based threshold algorithm of the HStudioTM M4 2.7.1 software (Phase Holographic Imaging AB, Lund, Sweden). The morphological changes were automatically analyzed over time by selecting and tracking individual cells.
For the morphometry analysis, different basic and complex morphological parameters were […]
The (i) area (surface area of the image occupied by a cell) and (ii) thickness (average spatial cell thickness) were grouped as basic metrics, while the more complex parameters relating to cell shape were: (iii) the eccentricity (how elongated a cell is comparing to a circle), (iv) the hull convexity (how different the 3D shape of a cell is compared to a perfect convex shape) and (v) the irregularity (how different the circumference of a cell is compared to the circumference of a perfect circle).
Table S1: Morphological changes of A2058 melanoma cells induced by the conjugates Compounds/ Area Thickness Eccentricity Hull convexity Irregularity concentrations [%] [%] [%] [%] [%]
[4Lys(Ac)] -GnRH-III(Dau=Aoa )
[4Lys(Bu)]-GnRH-III(Dau=Aoa)
Area (μm2) – surface area of the image that is occupied by the cell; Thickness (μm) – average thickness of the cell; Eccentricity – how elongated a cell comparing to a circle shape; Hull convexity – how different the 3D shape of a cell from the perfect convex shape; Irregularity – how different the circumference of a cell from the circumference of a perfect circle
Data represent averages and ±SD values calculated for 50 cells/group in 180 consecutive frames.
The presented data were calculated by HoloStudioTM M4 2.5 and analyzed by Origin Pro 2016. The levels of significance are shown as follows: *: p<0.05; **: p<0.01; ***: p<0.001

A2058 melanoma cells [2] = experiment: Cell cycle analysis, propidium iodide flow cytometry; assay type: cell-based, human; conditions: 10^−5 M, 24 h
Method: Since the conjugates had no or minor apoptotic effect, the cell cycle kinetics of the cells treated with GnRH-III-based conjugates was also investigated to reveal the mechanism of growth inhibition of these conjugates. The distribution of the control and treated cells in the different cell cycle phases was analyzed by measurements of relative DNA contents of individual cells by flow cytometry after propidium iodide (Sigma-Aldrich, St. Louis, MO, USA) staining. […] In parallel, a decrease in the proportions of cells in G1/G0 and G2/M phase and an increase in the percentage of S phase cells were also observed.
Figure 4 Effects of conjugates and daunorubicin (Dau) on cell cycle progression of A2058 melanoma cells. The model cell was incubated with the compounds at 10^−5 M concentration for 24 h. Results are expressed as a percentage of cells in the sub-G1 area and the major phases (G1/G0, S and G2/M) of the cell cycle. Data shown in the figure represent mathematical averages of two parallel measurements. […]
Jose, CA, USA) was used to measure the DNA content of cells with propidium iodide (Sigma-Aldrich, St. Louis, MO, USA) intercalated stoichiometrically to the double-stranded […]
A2058 cells were seeded, treated and harvested in the same way described in section ‘Apoptosis assay’; then, the cells were fixed in ice-cold 70% ethanol and kept at −20 °C for 24 h. The samples were centrifuged and resuspended in RNase (100 μg/ml, Sigma-Aldrich, St. Louis, MO, USA) containing citric acid/sodium phosphate buffer (pH = 7.8). Propidium iodide was added to the sample in 10 μg/ml concentration right before the flow cytometric measurements collecting at 25000 cells/sample.
Data were analyzed by CellQuest Pro and Flowing 2.5.1 (Turku Centre of Biotechnology, Turku, Finland) software. For aggregate/debris discrimination, FL2-Width vs FL2-Area plot […]
values to each population of cell cycle stages.
Measurement of cell adhesion […]
xCELLigence SP System ( ACEA Biosciences, San Diego, CA, USA).
The adhesion assay, analogous to the description in [5], was started with a background measurement as mentioned above in the section “Cell proliferation and cytotoxicity measurement”. In the next steps, the compounds were added in the concentration range of 10−8–10−5 M and the cells were loaded into the wells at a concentration of 10^4 cells/well. […]
NeuroProbe® MBB 96 chamber (NeuroProbe, Gaithersburg, MD, USA) by using polycarbonate filters with pore size 8 μm. To quantify the number of the chemotactically active cells, the alamarBlue-assay was applied as explained above. The ‘Chemotaxis index (Chtx. ind.) plotted in Figure 6 was calculated from the average of 8 parallel measurements and expressed as a percentage of control.

COc1cccc2c1C(=O)c1c(O)c3c(c(O)c1C2=O)C[C@@](O)(C(C)=O)C[C@@H]3O[C@H]1C[C@H](N)[C@H](O)[C@H](C)O1 [daunorubicin]
Area (A2058 melanoma cells [1]; 10^-5 M): 99.1 ± 4.1%
Eccentricity (A2058 melanoma cells [1]; 10^-5 M): 104.4 ± 1.84%
Hull convexity (A2058 melanoma cells [1]; 10^-5 M): 101.2 ± 0.29%
Irregularity (A2058 melanoma cells [1]; 10^-5 M): 102.6 ± 2.54%
Thickness (A2058 melanoma cells [1]; 10^-5 M): 104.5 ± 2.12%
Eccentricity (A2058 melanoma cells [1]; 10^-6 M): 96.6 ± 1.83%
Hull convexity (A2058 melanoma cells [1]; 10^-6 M): 100.1 ± 0.23%
Thickness (A2058 melanoma cells [1]; 10^-6 M): 95.4 ± 1.87%
Area (A2058 melanoma cells [1]; 10^-6 M, listed as Dau): 124.1%
Area (A2058 melanoma cells [1]; 10^-7 M): 94.5 ± 3.72%
Eccentricity (A2058 melanoma cells [1]; 10^-7 M): 95.2 ± 2.25%
Hull convexity (A2058 melanoma cells [1]; 10^-7 M): 103.4 ± 0.29%
Irregularity (A2058 melanoma cells [1]; 10^-7 M): 94.5 ± 2.41%
Thickness (A2058 melanoma cells [1]; 10^-7 M): 101.8 ± 1.95%
percentage of S phase cells (A2058 melanoma cells [2]; compared with control): increase
percentage of cells in sub-G1 phase (A2058 melanoma cells [2]; control 3.4%, average of two parallels): 14.1%
percentage of cells in G2/M phase (A2058 melanoma cells [2]; control 34.3%, average of two parallels): decrease
percentage of cells in G1/G0 phase (A2058 melanoma cells [2]; control 47.6%, average of two parallels): decrease
